Assay results as given in patent publication US20240319202A1, “METHOD FOR EVALUATING AGGREGATION STATE OF AGGREGATIVE PROTEIN” (HAMAMATSU PHOTONICS K.K., priority 2023, published 2024).

Tests used:
[1] = biological target: T1, lysozyme (Gallus gallus, UniProt P00698); assay: Evaluation of aggregation state of heat-denatured lysozyme using light-absorption/fluorescence characteristics of a xanthene dye as index; conditions: lysozyme 7 μM, dye 1 μM, heat-stirred at 60° C.
T1 construct: purchased FUJIFILM Wako Pure Chemical Corporation
Experimental: 40 mg of lysozyme (manufactured by FUJIFILM Wako Pure Chemical Corporation) was added to 2 mL of an aqueous solution of 25 mM of hydrochloric acid and 100 mM of sodium chloride, and dissolved by being left to stand. The obtained lysozyme solution was heat-stirred at 200 rpm at 60° C. to cause heat denaturation of the lysozyme, thereby starting the aggregation reaction of the lysozyme. At 0, 10, 20, 25, 30, 35, 40, 45, 50, 60, 70, 80, and 90 minutes after starting heat-stirring, each of 100 μL of the lysozyme solution was extracted and ice-cooled. The ice-cooled lysozyme solution, and rose bengal (manufactured by FUJIFILM Wako Pure Chemical Corporation) were added to distilled water such that final concentrations were each 7 μM and 1 μM. The obtained solution was put in a spectroscopic measurement cell to measure the light-absorption/fluorescence characteristics. The excitation wavelength in fluorescence measurement was 530 nm.
Sample preparation and light absorption and fluorescence measurement were performed in the same manner as in Example 1 except that eosin Y (manufactured by FUJIFILM Wako Pure Chemical Corporation) was used instead of rose bengal as the xanthene dye, and that the excitation wavelength in fluorescence measurement was set to 500 nm. […]

[2] = biological target: T2, horseradish peroxidase (HRP) (Armoracia rusticana, UniProt P00433); assay: Evaluation of aggregation state of heat-denatured horseradish peroxidase using light-absorption/fluorescence characteristics of rose bengal as index; conditions: HRP 5 μM, dye 1 μM, heat-stirred at 70° C., PBS pH 7.4
T2 construct: purchased FUJIFILM Wako Pure Chemical Corporation
T2 sequence (P00433 31-338): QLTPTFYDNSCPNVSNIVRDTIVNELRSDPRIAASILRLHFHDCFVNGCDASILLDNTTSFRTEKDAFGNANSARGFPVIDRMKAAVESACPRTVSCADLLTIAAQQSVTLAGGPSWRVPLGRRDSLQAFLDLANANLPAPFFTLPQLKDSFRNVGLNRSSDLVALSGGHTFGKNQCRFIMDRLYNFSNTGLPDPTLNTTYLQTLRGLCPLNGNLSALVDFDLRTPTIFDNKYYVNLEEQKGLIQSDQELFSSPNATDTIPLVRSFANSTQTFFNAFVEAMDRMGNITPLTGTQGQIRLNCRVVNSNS
Experimental: 40 mg of horseradish peroxidase (HRP, manufactured by FUJIFILM Wako Pure Chemical Corporation) was added to 2 mL of phosphate buffered saline at pH 7.4, and dissolved by being left to stand. The obtained HRP solution was heat-stirred at 200 rpm at 70° C. to cause heat denaturation of the HRP, thereby starting the aggregation reaction of the HRP. At 0, 5, 10, 15, 20, 25, 30, 35, 40, 50, 60, 70, 80, and 90 minutes after starting heat-stirring, each of 100 μL of the HRP solution was extracted and ice-cooled. The ice-cooled HRP solution, and rose bengal (manufactured by FUJIFILM Wako Pure Chemical Corporation) were added to distilled water such that final concentrations were each 5 μM and 1 μM. The obtained solution was put in a spectroscopic measurement cell to measure the light-absorption/fluorescence characteristics. The excitation wavelength in fluorescence measurement was 530 nm.

T1 sequence (P00698 19-147): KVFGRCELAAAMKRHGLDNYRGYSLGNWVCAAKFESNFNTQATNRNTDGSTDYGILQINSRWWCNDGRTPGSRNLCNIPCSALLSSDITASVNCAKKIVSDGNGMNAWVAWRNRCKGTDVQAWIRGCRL

| Structure (SMILES) | shape of the absorption spectra, maximum absorption wavelength and maximum absorbance versus heat denaturation time [1] | heat denaturation time at the minimum point of maximum absorbance (decreasing, thereafter increasing) ([2]; HRP absorption subtracted) | heat denaturation time at the minimum point of fluorescence intensity at around 570 nm and maximum fluorescence intensity (decreasing, thereafter increasing) ([2]; excitation 530 nm) |
| --- | --- | --- | --- |
| O.O=C([O-])c1ccccc1-c1c2cc(I)c(=O)c(I)c-2oc2c(I)c([O-])c(I)cc12.[Na+].[Na+] [erythrosin B] | changed depending on a heat denaturation time | – | – |
| O=C(O)c1c(Cl)c(Cl)c(Cl)c(Cl)c1-c1c2cc(I)c(=O)c(I)c-2oc2c(I)c(O)c(I)cc12 [rose bengal] | – | around 20 minutes | around 20 minutes |
